Measurements from paper PMC8264259, “A Novel Ruthenium(II) Complex With Lapachol Induces G2/M Phase Arrest Through Aurora-B Kinase Down-Regulation and ROS-Mediated Apoptosis in Human Prostate Adenocarcinoma Cells” (Frontiers in Oncology, 2021).

Assays:
[1] = tested on: A-375 (human malignant melanoma); assay: Alamar blue cytotoxicity assay, A-375; assay type: cell-based; settings: for IC50: A-375, Alamar blue, 24-h incubation, mean ± S.E.M.
Source text: (§1) Human lung carcinoma (A549, ATCC® CCL-185™), human hepatocellular carcinoma (HepG2, ATCC® HB-8065™), and human breast adenocarcinoma (MDA-MB-231, ATCC® HTB-26™) were obtained from American Type Cell Collection (ATCC). Human melanoma (A-375, BCRJ-0278), Human colorectal adenocarcinoma (Caco-2, BCRJ 0059), human prostate adenocarcinoma (DU-145, BCRJ-0078, and PC-3, BCRJ-0269), human mouth fibroblast (FGH, BCRJ-0089), and human prostate epithelial cells (PNT-2, BCRJ-0366) were obtained from Rio de Janeiro Cells Bank (BCRJ). The cells A549, A-375, Caco-2, DU-145, HepG2, MDA-MB-231, and FGH were cultured in Dulbecco’s Modified Eagle’s Medium (DMEM, Gibco-Invitrogen®), PC-3 and PNT-2 cells were grown in Roswell Park Memorial Institute Medium (RPMI-1640, Gibco-Invitrogen®). Both mediums were supplemented according to the needs of each lineage, as recommended by its cell banks with 2 mM L-glutamine (Gibco-Invitrogen®), 10% or 20% fetal bovine serum (Gibco-Invitrogen®), 1% antibiotic-antimycotic solution (5 mg/ml penicillin, 5 mg/ml streptomycin, and 10 mg/ml neomycin, Gibco-Invitrogen®), and 3.7 g/L of NaHCO3 (Sigma-Aldrich). All cell lines were cultured in flasks at 37°C in 5% CO2 and 96% of relative humidity according to the procedures proposed by ([31]), and a mycoplasma stain kit (Sigma-Aldrich) was used to confirm the use of cells devoid of contamination. The assays were conducted between the third and the seventh-cell passage with sub-cultures every 3 to 4 days to maintain exponential growth. The cell viability was checked using the trypan blue dye exclusion assay for all experiments where over 95% of the cells were viable at the beginning of the tests.
(§2) The in vitro antiproliferative activity was quantified using the Alamar blue® assay, according to the method reported by ([32]). Cells were seeded in 96-well plates for all experiments (1.5 × 10^4 cells/well). After 24 h, the complexes were dissolved in DMSO and added to each well and incubated for 24 h. Dilutions of the complexes were prepared to obtain concentrations ranging from 0.3 to 100 μM. […] DMSO (0.1% v/v) was used as the vehicle control. Following 24 h of incubation, 50 μl of Alamar blue® (resazurin at 0.01% w/v, Sigma-Aldrich) was added to each well, and the plates were incubated, at 37°C, in the dark. Fluorescence reading was performed in a Synergy H1 Fluorescence Spectrophotometer (BioTek®), using excitation and emission filters at wavelengths of 560 and 590 nm, respectively. The fluorescence intensity was measured in arbitrary fluorescence units (AFU) and the AFU of untreated cells (CTL) was considered 100%. The cytotoxic effects of the compounds were estimated in terms of cell proliferation inhibition (%) and expressed as half-maximal inhibitory concentration (IC50). The cell proliferation inhibition percentage of cells exposed to treatments was calculated following: % Inhibition = 100 − (AFU of treated well/AFU of control well) × 100). The IC50 values were calculated from the cell proliferation inhibition percentage by nonlinear regression method using CompusSyn® Software.

[2] = Partition coefficient (n-octanol/water), shake-flask method; assay type: physicochemical; settings: 24 h, 37°C, triplicate
Experimental: The octanol-water partition coefficients (log P) were quantified using the shake-flask method ([30]). Each complex was tested in a mixture of equal volumes of water and n-octanol with continuous shaking for 24 h at 112g and 37°C. Then the samples were centrifuged for 5 min at 10g, and the organic and aqueous phases were separated. The concentration of complex in each phase was measured spectrophotometrically to determine values of […]. The experiments were carried out in triplicate.

[3] = tested on: A549 (human lung carcinoma); assay: Alamar blue cytotoxicity assay, A549; assay type: cell-based; settings: for IC50: A549, Alamar blue, 24-h incubation, mean ± S.E.M.
Source text: as §1, §2

[4] = tested on: PNT-2 (human prostate epithelial cells); assay: Alamar blue cytotoxicity assay, PNT-2 non-cancer cells; assay type: cell-based; settings: 24-h incubation, mean ± S.E.M.
Source text: as §1, §2

DU-145 MCTSs = assay: 3D multicellular tumor spheroids (MCTSs) culture; assay type: cell-based, human; settings: for IC50: 3D spheroids, 24 h, Alamar blue, read-out: IC50 against the DU-145 MCTSs
Experimental: Multicellular tumor spheroids (MCTSs) were obtained according to the method reported by ([33]). Briefly, 200 μl of a solution of DU-145 cells (2.0 × 10^3 cells/well) were inserted in agarose-coated 96-well plates (1.5% w/v) and cultured in complete medium plus 3% Matrigel® (Corning). DU-145-MCTSs with stable structures had formed after five days. […] Negative control received the vehicle (DMSO 0.1% v/v) that was used for diluting the compounds tested. Finally, the MCTS proliferation inhibition (%) and IC50 were determined by Alamar blue® assay as described above. To investigate morphological changes other MCTSs were treated with 0.25, 0.5, 1.0, 1.5, and 2.0 μM of complex (2) and examined for 7 days. Spheroid integrity and diameter of MCTSs were analyzed by phase-contrast microscopy (Inverted Trinocular Microscope Opton TNB-O5T-PL) using AxioVision LE software (Carl Zeiss, Germany).

[5] = tested on: PC-3 (human prostate adenocarcinoma); assay: Alamar blue cytotoxicity assay, PC-3; assay type: cell-based; settings: for IC50: PC-3, Alamar blue, 24-h incubation, mean ± S.E.M.
Source text: as §1, §2

[6] = tested on: MDA-MB-231 (human breast adenocarcinoma); assay: Alamar blue cytotoxicity assay, MDA-MB-231; assay type: cell-based; settings: for IC50: MDA-MB-231, Alamar blue, 24-h incubation, mean ± S.E.M.
Source text: as §1, §2

[7] = tested on: HepG2 (human hepatocellular carcinoma); assay: Alamar blue cytotoxicity assay, HepG2; assay type: cell-based; settings: for IC50: HepG2, Alamar blue, 24-h incubation, mean ± S.E.M.
Source text: as §1, §2

[8] = tested on: Caco-2 (human colorectal adenocarcinoma); assay: Alamar blue cytotoxicity assay, Caco-2; assay type: cell-based; settings: for IC50: Caco-2, Alamar blue, 24-h incubation, mean ± S.E.M.
Source text: as §1, §2

[9] = tested on: DU-145 (human prostate adenocarcinoma); assay: Alamar blue cytotoxicity assay, DU-145; assay type: cell-based; settings: for IC50: DU-145, Alamar blue, 24-h incubation, mean ± S.E.M.
Source text: as §1, §2

[10] = SI = IC50[FGH]/IC50[MDA-MB-231]
[11] = SI = IC50[PNT-2]/IC50[MDA-MB-231]

Compound | IC50 [1] [nM] | Selectivity index (SI) ([1]; SI = IC50[FGH]/IC50[A-375]) | Selectivity index (SI) ([1]; SI = IC50[PNT-2]/IC50[A-375]) | log P(o/w) [2] | IC50 [3] [nM] | Selectivity index (SI) ([3]; SI = IC50[FGH]/IC50[A549]) | Selectivity index (SI) ([3]; SI = IC50[PNT-2]/IC50[A549]) | IC50 [4] [nM] | IC50 (DU-145 MCTSs) [nM] | IC50 [5] [nM] | Selectivity index (SI) ([5]; SI = IC50[FGH]/IC50[PC-3]) | Selectivity index (SI) ([5]; SI = IC50[PNT-2]/IC50[PC-3]) | IC50 [6] [nM] | Selectivity index (SI) [6, 10] | Selectivity index (SI) [6, 11] | IC50 [7] [nM] | Selectivity index (SI) ([7]; SI = IC50[FGH]/IC50[HepG2]) | Selectivity index (SI) ([7]; SI = IC50[PNT-2]/IC50[HepG2]) | IC50 [8] [nM] | Selectivity index (SI) ([8]; SI = IC50[FGH]/IC50[Caco-2]) | further results
CC(C)=CCC1=C([O-])C(=O)c2ccccc2C1=O.F[P-](F)(F)(F)(F)F.[Ru+2].c1ccc(-c2ccccn2)nc1.c1ccc(P(CP(c2ccccc2)c2ccccc2)c2ccccc2)cc1 [complex (1), [Ru(Lap)(dppm)(bipy)]PF6] | 2500 ± 600 | 1.2 | 2.4 | 0.617 ± 0.014 | 3300 ± 400 | 0.9 | 1.8 | 5900 ± 2100 | 2400 | 1300 ± 400 | 2.4 | 4.5 | 2100 ± 400 | 1.5 | 2.8 | 1700 ± 500 | 1.8 | 3.5 | 2000 ± 600 | 1.5 | Selectivity index (SI) ([8]; SI = IC50[PNT-2]/IC50[Caco-2]): 2.9; IC50 [9]: 900 ± 200 nM; Selectivity index (SI) ([9]; SI = IC50[FGH]/IC50[DU-145]): 3.4; Selectivity index (SI) ([9]; SI = IC50[PNT-2]/IC50[DU-145]): 6.5
CC(C)=CCC1=C([O-])C(=O)c2ccccc2C1=O.F[P-](F)(F)(F)(F)F.[Ru+2].c1ccc(P(CP(c2ccccc2)c2ccccc2)c2ccccc2)cc1.c1cnc2c(c1)ccc1cccnc12 [complex (2), [Ru(Lap)(dppm)(phen)]PF6] | 900 ± 300 | 2.7 | 7.5 | 0.839 ± 0.007 | 2600 ± 100 | 1.0 | 2.6 | 6800 ± 1500 | 1900 | 1100 ± 300 | 2.2 | 6.2 | 2000 | 1.2 | 3.4 | 1500 ± 200 | 1.7 | 4.5 | 1200 ± 300 | 2.0 | total spheroid area over time (DU-145 MCTSs; DU-145 MCTSs treated with 0.25-2.0 μM, examined for 7 days): decrease in the total spheroid area; more potent than cisplatin (fold) (DU-145 MCTSs; DU-145 MCTSs, IC50 ratio vs cisplatin): ≥ 32 fold; Selectivity index (SI) ([8]; SI = IC50[PNT-2]/IC50[Caco-2]): 5.7; IC50 [9]: 800 ± 100 nM; cell viability with ROS scavenger NAC ([9]; DU-145, cotreatment with 5 mM NAC, 24 h, Alamar blue): prevented the reduction of cell viability; Selectivity index (SI) ([9]; SI = IC50[FGH]/IC50[DU-145]): 3.1; Selectivity index (SI) ([9]; SI = IC50[PNT-2]/IC50[DU-145]): 8.5
